Data set [1] addresses T1, human adenosine A2A receptor (Homo sapiens, UniProt P29274).
T1 construct: expressed in transfected cells; host or cells: CHO cells, Semliki Forest virus expression system; washed membrane pellet used
Nature of the data set: [3H]-SCH-58261 binding assay at the human adenosine A2A receptor. Conditions: read-out: pKi value (converted).

T1 sequence (P29274 whole entry): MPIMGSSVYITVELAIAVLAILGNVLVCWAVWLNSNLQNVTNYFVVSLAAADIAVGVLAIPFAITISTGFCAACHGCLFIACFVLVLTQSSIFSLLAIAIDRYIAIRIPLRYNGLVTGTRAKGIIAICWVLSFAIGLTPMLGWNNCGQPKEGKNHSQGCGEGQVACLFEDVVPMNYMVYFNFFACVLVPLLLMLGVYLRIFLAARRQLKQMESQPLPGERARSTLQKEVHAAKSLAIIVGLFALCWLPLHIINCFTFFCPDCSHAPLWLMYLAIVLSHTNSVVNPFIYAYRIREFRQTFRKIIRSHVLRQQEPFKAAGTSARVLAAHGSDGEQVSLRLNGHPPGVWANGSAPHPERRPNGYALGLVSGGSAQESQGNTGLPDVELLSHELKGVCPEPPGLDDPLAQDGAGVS

Take `COCCN(C)Cc1ccc(C(=O)Nc2nc3c(OC)ccc(-c4cccs4)c3s2)cc1` [Example 240, 4-{[(2-Methoxy-ethyl)-methyl-amino]-methyl}-N-(4-methoxy-7-thiophen-2-yl-benzothiazol-2-yl)-benzamide]: the melting point (commonly the temperature, or range, at which the solid turns liquid) lay in the range of 58 to 78 °C. In data set [1], the Ki is 3.16 nM.

For `COc1ccc(-c2csc(N3CCN(C)CC3)n2)c2sc(NC(=O)c3ccc(F)cc3)nc12` [Example 221, 4-Fluoro-N-{4-methoxy-7-[2-(4-methyl-piperazin-1-yl)-thiazol-4-yl]-benzothiazol-2-yl}-benzamide], the melting point was 138 °C (dec.). Further, the Ki in data set [1] is 2 nM.

For the compound `COc1ccc(-c2csc(N(C)C)n2)c2sc(NC(=O)c3ccc(F)cc3)nc12` [Example 219, N-[7-(2-Dimethylamino-thiazol-4-yl)-4-methoxy-benzothiazol-2-yl]-4-fluoro-benzamide], the melting point lay in the range of 218 to 220 °C.

Consider `COc1ccc(-c2csc(C)n2)c2sc(NC(=O)c3ccc(CCl)cc3)nc12` [Example 233, 4-Chloromethyl-N-[4-methoxy-7-(2-methyl-thiazol-4-yl)-benzothiazol-2-yl]-benzamide], for which the melting point was 140 to 145 °C.

The compound `COc1ccc(-c2csc(C)n2)c2sc(NC(=O)N3CCN(C)CC3)nc12` [Example 267, 4-Methyl-piperazine-1-carboxylic acid [4-methoxy-7-(2-methyl-thiazol-4-yl)-benzothiazol-2-yl]-amide] came in with a melting point of 179 to 181 °C.

Take `COc1ccc(-c2cccs2)c2sc(NC(=O)N3CCOCC3)nc12` [Example 263, Morpholine-4-carboxylic acid (4-methoxy-7-thiophen-2-yl-benzothiazol-2-yl)-amide]: the melting point is 175 to 182 °C (dec.).

On to `COc1ccc(-c2csc(N)n2)c2sc(NC(=O)c3ccc(F)cc3)nc12` [Example 217, N-[7-(2-Amino-thiazol-4-yl)-4-methoxy-benzothiazol-2-yl]-4-fluoro-benzamide], for which the melting point fell in the range of 262 to 264 °C.

`COc1ccc(-c2ccc(C)s2)c2sc(NC(=O)c3ccc(CCl)cc3)nc12` [Example 234, 4-Chloromethyl-N-[4-methoxy-7-(5-methyl-thiophen-2-yl)-benzothiazol-2-yl]-benzamide] returned a melting point of 130 to 146 °C.

Values taken from US7317007B2, “Benzothiazole derivatives with activity as adenosine receptor ligands” (Hoffmann-La Roche Inc., priority 2000, dated 2008).
